Reference: patent publication US4826814A, “Tripeptide derivatives” (Dainippon Pharmaceutical Co., Ltd., priority 1986, dated 1989)
Starred links: 1 amine or outer side, 2 acyl side, 3 side chain; linkers in the order of their positions; H or OH if unused. Non-standard residues stand in square brackets, D forms with d. Residues, ends and D or L forms follow the SMILES beside them. *: point of attachment. d(γGlu) = O=C(O)[C@@H](CCC(=O)[*:2])N[*:1]; Oic = O=C(O)[C@@H]1C[C@@H]2CCCC[C@@H]2N1; Nicotinoyl = O=C(c1cccnc1)*

Key:
[1] = target: angiotensin converting enzyme (ACE) (Homo sapiens, UniProt P12821); details: stated by the publication of Ksander et al.; cited from earlier work
angiotensin converting enzyme (ACE), sequence (P12821 30-1306, species assumed): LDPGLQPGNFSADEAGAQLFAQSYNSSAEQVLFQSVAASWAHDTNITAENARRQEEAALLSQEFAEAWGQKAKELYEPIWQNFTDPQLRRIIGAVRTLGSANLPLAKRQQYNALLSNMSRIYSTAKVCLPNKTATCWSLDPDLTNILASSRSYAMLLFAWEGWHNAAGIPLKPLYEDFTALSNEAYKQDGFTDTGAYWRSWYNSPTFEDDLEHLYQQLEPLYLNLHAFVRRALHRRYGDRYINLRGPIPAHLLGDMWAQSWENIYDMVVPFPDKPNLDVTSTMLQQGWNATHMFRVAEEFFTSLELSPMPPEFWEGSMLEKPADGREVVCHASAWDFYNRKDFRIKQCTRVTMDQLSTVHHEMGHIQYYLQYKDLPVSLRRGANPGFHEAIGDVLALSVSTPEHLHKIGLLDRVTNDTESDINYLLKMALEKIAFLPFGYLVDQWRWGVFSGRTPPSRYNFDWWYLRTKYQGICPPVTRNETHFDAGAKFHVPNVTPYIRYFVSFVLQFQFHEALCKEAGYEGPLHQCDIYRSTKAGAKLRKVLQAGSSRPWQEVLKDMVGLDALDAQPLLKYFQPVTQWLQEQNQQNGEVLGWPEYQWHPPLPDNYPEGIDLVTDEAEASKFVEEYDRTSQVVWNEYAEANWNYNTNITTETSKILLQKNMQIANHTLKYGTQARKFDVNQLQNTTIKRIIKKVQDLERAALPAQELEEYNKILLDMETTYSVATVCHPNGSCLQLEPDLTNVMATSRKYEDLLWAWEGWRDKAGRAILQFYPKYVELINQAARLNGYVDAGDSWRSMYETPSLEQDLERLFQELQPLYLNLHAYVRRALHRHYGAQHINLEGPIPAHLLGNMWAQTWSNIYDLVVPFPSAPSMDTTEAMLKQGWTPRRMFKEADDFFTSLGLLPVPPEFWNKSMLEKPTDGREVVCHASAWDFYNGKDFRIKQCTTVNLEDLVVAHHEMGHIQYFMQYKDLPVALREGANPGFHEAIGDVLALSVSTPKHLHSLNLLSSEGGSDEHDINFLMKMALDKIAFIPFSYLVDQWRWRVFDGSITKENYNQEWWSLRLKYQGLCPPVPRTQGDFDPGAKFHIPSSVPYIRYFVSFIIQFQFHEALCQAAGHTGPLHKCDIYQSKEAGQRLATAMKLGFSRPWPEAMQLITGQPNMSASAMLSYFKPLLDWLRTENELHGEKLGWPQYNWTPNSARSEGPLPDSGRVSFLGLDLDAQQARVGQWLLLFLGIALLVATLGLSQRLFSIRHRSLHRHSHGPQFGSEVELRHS

[2] = target: T1, ACE preparation (rabbit lung) (Oryctolagus cuniculus, UniProt P12822); assay: In vitro ACE inhibitory activity (hippuryl-L-histidyl-L-leucine substrate); format: biochemical; details: 37° C., 30 minutes, pH 8.3
T1 construct: an ACE preparation (rabbit lung); from tissue; host or cells: rabbit lung
T1 sequence (P12822 34-1310): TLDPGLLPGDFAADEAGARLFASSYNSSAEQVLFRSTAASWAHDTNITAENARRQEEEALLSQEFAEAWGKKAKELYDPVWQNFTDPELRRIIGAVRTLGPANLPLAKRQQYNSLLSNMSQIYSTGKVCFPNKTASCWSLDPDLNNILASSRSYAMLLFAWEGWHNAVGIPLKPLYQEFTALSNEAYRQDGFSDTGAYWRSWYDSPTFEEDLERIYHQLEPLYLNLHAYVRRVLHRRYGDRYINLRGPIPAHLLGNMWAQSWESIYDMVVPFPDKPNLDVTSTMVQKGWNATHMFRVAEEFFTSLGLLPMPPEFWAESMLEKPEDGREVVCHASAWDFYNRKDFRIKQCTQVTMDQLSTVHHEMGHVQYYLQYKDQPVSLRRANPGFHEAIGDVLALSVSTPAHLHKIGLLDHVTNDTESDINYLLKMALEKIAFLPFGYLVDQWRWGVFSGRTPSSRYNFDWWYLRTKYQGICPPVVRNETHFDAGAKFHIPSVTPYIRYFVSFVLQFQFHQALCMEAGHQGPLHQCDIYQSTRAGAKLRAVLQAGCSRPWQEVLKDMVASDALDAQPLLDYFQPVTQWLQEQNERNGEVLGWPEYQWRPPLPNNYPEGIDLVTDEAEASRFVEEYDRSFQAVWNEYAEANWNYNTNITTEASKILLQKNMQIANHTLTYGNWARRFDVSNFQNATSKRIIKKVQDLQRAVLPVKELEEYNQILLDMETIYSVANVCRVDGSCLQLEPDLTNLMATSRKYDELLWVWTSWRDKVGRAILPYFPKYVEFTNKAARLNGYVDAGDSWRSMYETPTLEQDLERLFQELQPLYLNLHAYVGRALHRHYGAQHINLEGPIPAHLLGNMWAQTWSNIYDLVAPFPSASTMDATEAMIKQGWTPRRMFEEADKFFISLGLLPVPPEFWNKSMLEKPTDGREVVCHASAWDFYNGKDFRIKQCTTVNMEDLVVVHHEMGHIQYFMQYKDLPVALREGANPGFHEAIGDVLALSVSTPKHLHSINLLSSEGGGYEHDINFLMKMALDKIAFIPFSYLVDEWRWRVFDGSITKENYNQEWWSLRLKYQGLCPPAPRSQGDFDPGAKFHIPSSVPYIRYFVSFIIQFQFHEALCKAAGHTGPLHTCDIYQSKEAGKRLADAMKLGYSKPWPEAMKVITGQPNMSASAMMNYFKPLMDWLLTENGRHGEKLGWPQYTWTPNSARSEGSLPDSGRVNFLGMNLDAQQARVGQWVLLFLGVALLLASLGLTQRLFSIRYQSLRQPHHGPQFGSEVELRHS
Protocol: The assay medium contained an ACE preparation (rabbit lung), synthetic substrate (hippuryl-L-histidyl-L-leucine 5 mM), NaCl (300 mM) and phosphate buffer (100 mM, pH 8.3). It was mixed to a final volume of 0.300 ml and incubated at 37° C. for 30 minutes in the presence or absence of test compounds. After the reaction was terminated by adding 300 μl of 1N HCl, hippuric acid formed was extracted with 2 volume of ethyl acetate. After ethyl acetate was evaporated and distilled water was added, the hippuric acid was determined from its absorbance at 228 nm by spectrophotometer (Hitachi 100-41).
The degree of ACE inhibition was calculated from activities with and without test compounds. The IC50 value (molar concentration required for the 50% inhibition of ACE activity) was obtained from a dose-inhibition curve.

[3] = system: renal hypertensive rats; assay: Antihypertensive activity after single oral administration in two-kidney Goldblatt type renal hypertensive rats (tail-cuff blood pressure); format: in vivo, rat; details: for antihypertensive action after oral administration: in vivo test with rats; for Charge in pressure at 9 hours administration: blood pressure, renal hypertensive rats, single oral administration
Excerpt: Male Sprague Dawley rats (5 weeks old) were subjected to constriction of the left renal artery with a silver clip (internal diameter: 0.22 mm) under light ether anesthesia. The right kidney and renal artery were left intact. About 6-10 weeks after clipping, rats showing a blood pressure above 180 mmHg were used. These treated rats are named two-kidney Goldblatt type renal hypertensive rats and considered as a typical model of reninangiotensin dependent hypertension.
The blood pressure was measured by a tail-cuff method using a programmed electro-sphygmomanometer (PE-300, Narco Biosystem, U. S. A.) after warming at 38° C. for 10 minutes in heating box.
The antihypertensive activity of test compounds was evaluated after single oral administration in renal hypertensive rats (3-5 rats/group).

[4] = system: Male STD-ddy strain mice; assay: Toxicity: oral LD50 in mice; format: in vivo
Excerpt: Male STD-ddy strain mice weighing about 22 to 25 g were used.

| SMILES | in vitro inhibition of ACE [1] | IC50 [2] | antihypertensive action after oral administration [3] | Charge in pressure at 9 hours administration ([3]; dose of 30 mg/kg) | oral LD50 [4] | Charge in pressure at 9 hours administration ([3]; dose of 10 mg/kg) |
| --- | --- | --- | --- | --- | --- | --- |
| NCCCC[C@H](N)C(=O)N[C@H](CCC(=O)N1c2ccccc2C[C@H]1C(=O)O)C(=O)O [1-(L-lysyl-γ-D-glutamyl)indoline-2(S)carboxylic acid, reference compound] | show in vitro inhibition of ACE | 18.8 nM | do not show any significant antihypertensive action |  |  |  |
| O=C(NCCCC[C@H](NC(=O)OCc1ccccc1)C(=O)N[C@H](CCC(=O)N1c2ccccc2C[C@H]1C(=O)O)C(=O)O)OCc1ccccc1 [1-(N^2,N^6dibenzyloxycarbonyl-L-lysyl-γ-D-glutamyl)indoline-2(S)carboxylic acid, reference compound] | show in vitro inhibition of ACE |  | do not show any significant antihypertensive action | -2 |  |  |
| NCCCC[C@H](NC(=O)c1cccnc1)C(=O)N[C@H](CCC(=O)N1[C@H](C(=O)O)C[C@@H]2CCCC[C@@H]21)C(=O)O [Example 15, (2S,3aS,7aS)-1-(N^2 -Nicotinoyl-L-lysyl-gamma-D-glutamyl)octahydro-1H-indole-2-carboxylic acid] (Nicotinoyl-Lys-[d(γGlu)]-[Oic]-OH) |  | 6.4 nM |  |  | more than 3,000 mg per kilogram of body weight |  |
| NCCCC[C@H](NC(=O)c1ccc(O)cc1)C(=O)N[C@H](CCC(=O)N1[C@H](C(=O)O)C[C@@H]2CCCC[C@@H]21)C(=O)O [Example 51, (2S,3aS,7aS)-1-[N^2-(4-Hydroxybenzoyl)-L-lysyl-gamma-D-glutamyl)octahydro-1H-indole-2-carboxylic acid] |  | 5.2 nM |  |  | more than 3,000 mg per kilogram of body weight |  |
| NCCC[S+]([O-])C[C@H](NC(=O)OCc1ccccc1)C(=O)N[C@H](CCC(=O)N1[C@H](C(=O)O)C[C@@H]2CCCC[C@@H]21)C(=O)O (stereo partly drawn) [Example 76, (2S,3aS,7aS)-1-[N-Benzyloxycarbonyl-S-(3-aminopropyl)-L-cysteinyl-gamma-D-glutamyl]octahydro-1H-indole-2-carboxylic acid sulfoxide] |  |  |  |  |  | -31 |
